Data: ChEMBL document CHEMBL6087472, “Development and Discovery of a Selective Degrader of Casein Kinases 1 δ/ε” (J Med Chem, 2025)
Active and inactive are the calls of the source. The calls are words filed in the database; no cut-off is given here.

What was measured:
[1] = target: T1, von Hippel-Lindau disease tumor suppressor/Casein kinase I isoform delta (Homo sapiens, UniProt P48730+P40337); assay: PROTAC activity at VHL/Hibit-fused CK1 delta in human MV4-11 cells assessed as degradation of CK1-delta incubated for 6 hrs by Nano-Glo HiBiT assay; assay type: cell-based
Target sequence in this assay (P48730 whole entry, the tested form may be a part, canonical isoform): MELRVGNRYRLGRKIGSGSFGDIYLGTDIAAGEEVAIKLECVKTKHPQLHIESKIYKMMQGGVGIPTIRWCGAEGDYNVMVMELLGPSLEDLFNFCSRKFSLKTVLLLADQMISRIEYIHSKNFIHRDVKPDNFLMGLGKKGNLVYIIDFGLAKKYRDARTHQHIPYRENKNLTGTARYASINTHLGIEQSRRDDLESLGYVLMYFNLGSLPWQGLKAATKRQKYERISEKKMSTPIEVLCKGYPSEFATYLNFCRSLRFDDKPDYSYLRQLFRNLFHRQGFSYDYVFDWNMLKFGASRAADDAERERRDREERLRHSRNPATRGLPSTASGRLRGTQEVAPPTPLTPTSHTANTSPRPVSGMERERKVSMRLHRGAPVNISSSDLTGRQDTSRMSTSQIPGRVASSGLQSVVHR
Target sequence in this assay (P40337 whole entry, the tested form may be a part, canonical isoform): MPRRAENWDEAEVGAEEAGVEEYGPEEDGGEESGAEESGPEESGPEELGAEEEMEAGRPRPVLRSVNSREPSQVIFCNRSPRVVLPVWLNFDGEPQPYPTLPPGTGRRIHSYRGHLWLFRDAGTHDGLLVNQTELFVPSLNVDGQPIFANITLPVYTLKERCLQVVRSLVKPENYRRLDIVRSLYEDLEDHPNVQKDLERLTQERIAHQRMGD

[2] = target: T2, von Hippel-Lindau disease tumor suppressor/Casein kinase I isoform alpha (Homo sapiens) (UniProt P48729+P40337); assay: PROTAC activity at VHL/Hibit-fused CK1 alpha in human MV4-11 cells assessed as degradation of CK1-alpha incubated for 6 hrs by Nano-Glo HiBiT assay relative to control; assay type: cell-based
T2 sequence (P40337 whole entry, looked up, the tested form may be a part, canonical isoform): as the sequence (P40337 whole entry, the tested form may be a part, canonical isoform) above
T2 sequence (P48729 whole entry, looked up, the tested form may be a part, canonical isoform): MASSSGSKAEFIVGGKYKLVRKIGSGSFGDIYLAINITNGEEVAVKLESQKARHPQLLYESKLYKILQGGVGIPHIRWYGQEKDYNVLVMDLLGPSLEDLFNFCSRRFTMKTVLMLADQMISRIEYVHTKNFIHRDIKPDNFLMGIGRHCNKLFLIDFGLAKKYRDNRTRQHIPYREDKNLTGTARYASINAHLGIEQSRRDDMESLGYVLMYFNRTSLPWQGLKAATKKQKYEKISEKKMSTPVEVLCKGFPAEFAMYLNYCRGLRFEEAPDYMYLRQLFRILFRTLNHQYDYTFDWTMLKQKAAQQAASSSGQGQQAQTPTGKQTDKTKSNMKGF

[3] = target: T1, von Hippel-Lindau disease tumor suppressor/Casein kinase I isoform delta; assay: PROTAC activity at VHL/Hibit-fused CK1 delta in human MV4-11 cells assessed as degradation of CK1-delta at 10 nM incubated for 6 hrs by Nano-Glo HiBiT assay; assay type: cell-based
Target sequence in this assay (P40337 whole entry, looked up, the tested form may be a part, canonical isoform): as the sequence (P40337 whole entry, the tested form may be a part, canonical isoform) above
Target sequence in this assay (P48730 whole entry, looked up, the tested form may be a part, canonical isoform): as the sequence (P48730 whole entry, the tested form may be a part, canonical isoform) above

[4] = target: T2, von Hippel-Lindau disease tumor suppressor/Casein kinase I isoform alpha (Homo sapiens); assay: PROTAC activity at VHL/Hibit-fused CK1 alpha in human MV4-11 cells assessed as degradation of CK1-alpha at 10 to 30 uM incubated for 6 hrs by Western blot analysis; assay type: cell-based; conditions: dose 10-30 µM
[5] = target: T2, von Hippel-Lindau disease tumor suppressor/Casein kinase I isoform alpha (Homo sapiens); assay: PROTAC activity at VHL/CK1 alpha in human MV4-11 cells assessed as degradation of CK1-alpha at 10 to 30 uM incubated for 6 hrs by Western blot analysis; assay type: cell-based; conditions: dose 10-30 µM
[6] = target: T3, von Hippel-Lindau disease tumor suppressor/Casein kinase I isoform epsilon (Homo sapiens) (UniProt P49674+P40337); assay: PROTAC activity at VHL/CK1 epsilon in human MV4-11 cells assessed as degradation of CK1 epsilon at 5 to 10 uM incubated for 6 hrs by Western blot analysis; assay type: cell-based; conditions: dose 5-10 µM
T3 sequence (P40337 whole entry, looked up, canonical isoform): as the sequence (P40337 whole entry, the tested form may be a part, canonical isoform) above
T3 sequence (P49674 whole entry, looked up, canonical isoform): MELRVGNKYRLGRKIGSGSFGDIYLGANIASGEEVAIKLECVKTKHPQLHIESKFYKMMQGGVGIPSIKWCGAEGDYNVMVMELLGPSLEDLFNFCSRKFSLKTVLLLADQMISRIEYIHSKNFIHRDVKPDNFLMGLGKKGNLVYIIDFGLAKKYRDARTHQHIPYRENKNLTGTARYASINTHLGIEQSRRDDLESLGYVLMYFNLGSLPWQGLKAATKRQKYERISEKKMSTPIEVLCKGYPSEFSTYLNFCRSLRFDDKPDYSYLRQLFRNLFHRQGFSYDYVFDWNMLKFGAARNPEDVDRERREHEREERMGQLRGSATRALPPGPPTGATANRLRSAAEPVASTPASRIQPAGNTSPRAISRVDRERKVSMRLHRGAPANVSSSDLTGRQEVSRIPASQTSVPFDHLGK

[7] = target: T1, von Hippel-Lindau disease tumor suppressor/Casein kinase I isoform delta; assay: PROTAC activity at VHL/CK1 delta in HEK293 cells assessed as induction of degradation of CK1 delta by measuring maximum efficacy at 5 to 10 uM measured after 6 hrs by Western blot analysis relative to control; assay type: cell-based; conditions: dose 5-10 µM
Target sequence in this assay (P40337 whole entry, looked up, the tested form may be a part, canonical isoform): as the sequence (P40337 whole entry, the tested form may be a part, canonical isoform) above
Target sequence in this assay (P48730 whole entry, looked up, the tested form may be a part, canonical isoform): as the sequence (P48730 whole entry, the tested form may be a part, canonical isoform) above

[8] = target: T3, von Hippel-Lindau disease tumor suppressor/Casein kinase I isoform epsilon (Homo sapiens); assay: PROTAC activity at VHL/CK1 epsilon in HEK293 cells assessed as induction of degradation of CK1 epsilon by measuring maximum efficacy at 5 to 10 uM measured after 6 hrs by Western blot analysis relative to control; assay type: cell-based; conditions: dose 5-10 µM
MV4-11 = assay: Cytotoxicity in human MV4-11 cells at 10 uM measured after 72 hrs by alamar blue assay; assay type: functional, cell-based
[9] = target: T3, von Hippel-Lindau disease tumor suppressor/Casein kinase I isoform epsilon (Homo sapiens); assay: PROTAC activity at VHL/CK1 epsilon in HEK293 cells assessed as induction of degradation of CK1 epsilon measured after 6 hrs by Western blot analysis; assay type: cell-based; conditions: dose 0.01-30 µM
[10] = target: T2, von Hippel-Lindau disease tumor suppressor/Casein kinase I isoform alpha (Homo sapiens); assay: PROTAC activity at VHL/CK1 alpha in HEK293 cells assessed as induction of degradation of CK1 alpha at 10 uM measured after 6 hrs by Western blot analysis relative to control; assay type: cell-based
[11] = target: T2, von Hippel-Lindau disease tumor suppressor/Casein kinase I isoform alpha (Homo sapiens); assay: PROTAC activity at VHL/CK1 alpha in HEK293 cells assessed as induction of degradation of CK1 alpha at high concentration measured after 6 hrs by Western blot analysis relative to control; assay type: cell-based
[12] = target: T3, von Hippel-Lindau disease tumor suppressor/Casein kinase I isoform epsilon (Homo sapiens); assay: PROTAC activity at VHL/CK1 epsilon in HEK293 cells assessed as induction of degradation of CK1 epsilon at 3 uM measured after 6 hrs by Western blot analysis relative to control; assay type: cell-based
[13] = target: T2, von Hippel-Lindau disease tumor suppressor/Casein kinase I isoform alpha (Homo sapiens); assay: PROTAC activity at VHL/CK1 alpha in human MV4-11 cells assessed as induction of degradation of CK1 alpha by measuring maximum efficacy at 2.5 uM measured after 12 hrs by HiBit assay relative to control; assay type: cell-based
[14] = target: T2, von Hippel-Lindau disease tumor suppressor/Casein kinase I isoform alpha (Homo sapiens); assay: PROTAC activity at VHL/CK1 alpha in human MV4-11 cells assessed as induction of degradation of CK1 alpha measured after 1 hrs by HiBit assay; assay type: cell-based; conditions: dose 0.625-10 µM
[15] = target: T1, von Hippel-Lindau disease tumor suppressor/Casein kinase I isoform delta; assay: PROTAC activity at VHL/CK1 delta in human MV4-11 cells assessed as induction of degradation of CK1 delta by measuring maximum efficacy at 0.625 to 10 uM measured after 9 hrs by HiBit assay relative to control; assay type: cell-based; conditions: dose 0.625-10 µM
Target sequence in this assay (P40337 whole entry, looked up, the tested form may be a part, canonical isoform): as the sequence (P40337 whole entry, the tested form may be a part, canonical isoform) above
Target sequence in this assay (P48730 whole entry, looked up, the tested form may be a part, canonical isoform): as the sequence (P48730 whole entry, the tested form may be a part, canonical isoform) above

[16] = target: T2, von Hippel-Lindau disease tumor suppressor/Casein kinase I isoform alpha (Homo sapiens); assay: PROTAC activity at VHL/CK1 alpha in human U87 cells assessed as induction of degradation of CK1 alpha at 1 uM measured after 6 hrs; assay type: cell-based
[17] = target: T1, von Hippel-Lindau disease tumor suppressor/Casein kinase I isoform delta; assay: PROTAC activity at VHL/CK1 delta in human MDA-MB-231 cells assessed as induction of degradation of CK1 delta by measuring maximum efficacy at 1 uM measured after 6 hrs relative to control; assay type: cell-based
Target sequence in this assay (P40337 whole entry, looked up, the tested form may be a part, canonical isoform): as the sequence (P40337 whole entry, the tested form may be a part, canonical isoform) above
Target sequence in this assay (P48730 whole entry, looked up, the tested form may be a part, canonical isoform): as the sequence (P48730 whole entry, the tested form may be a part, canonical isoform) above

[18] = target: T3, von Hippel-Lindau disease tumor suppressor/Casein kinase I isoform epsilon (Homo sapiens); assay: PROTAC activity at VHL/CK1 epsilon in human MDA-MB-231 cells assessed as induction of degradation of CK1 epsilon by measuring maximum efficacy at 1 uM measured after 6 hrs relative to control; assay type: cell-based
[19] = target: T1, von Hippel-Lindau disease tumor suppressor/Casein kinase I isoform delta; assay: PROTAC activity at VHL/HiBit fused CK1 delta in human MV4-11 cells assessed as fold change at 10 uM measured after 6 hrs by Nano-Glo HiBit assay; assay type: cell-based
Target sequence in this assay (P40337 whole entry, looked up, the tested form may be a part, canonical isoform): as the sequence (P40337 whole entry, the tested form may be a part, canonical isoform) above
Target sequence in this assay (P48730 whole entry, looked up, the tested form may be a part, canonical isoform): as the sequence (P48730 whole entry, the tested form may be a part, canonical isoform) above

[20] = target: T1, von Hippel-Lindau disease tumor suppressor/Casein kinase I isoform delta; assay: PROTAC activity at VHL/HiBit fused CK1 delta in human MV4-11 cells assessed as fold change at 10 uM measured after 6 hrs in presence of MLN4924 by Nano-Glo HiBit assay; assay type: cell-based
Target sequence in this assay (P40337 whole entry, looked up, the tested form may be a part, canonical isoform): as the sequence (P40337 whole entry, the tested form may be a part, canonical isoform) above
Target sequence in this assay (P48730 whole entry, looked up, the tested form may be a part, canonical isoform): as the sequence (P48730 whole entry, the tested form may be a part, canonical isoform) above

[21] = target: T1, von Hippel-Lindau disease tumor suppressor/Casein kinase I isoform delta; assay: PROTAC activity at VHL/HiBit fused CK1 delta in human MV4-11 cells assessed as fold change at 2.5 uM measured after 6 hrs in presence of MLN4924 by Nano-Glo HiBit assay; assay type: cell-based
[22] = target: T1, von Hippel-Lindau disease tumor suppressor/Casein kinase I isoform delta; assay: PROTAC activity at VHL/HiBit fused CK1 delta in human MV4-11 cells assessed as fold change at 0.63 uM measured after 6 hrs in presence of MLN4924 by Nano-Glo HiBit assay; assay type: cell-based
[23] = target: T1, von Hippel-Lindau disease tumor suppressor/Casein kinase I isoform delta; assay: PROTAC activity at VHL/HiBit fused CK1 delta in human MV4-11 cells assessed as fold change at 0.63 uM measured after 6 hrs in presence of 10 uM of MU1742 by Nano-Glo HiBit assay; assay type: cell-based
[24] = target: T2, von Hippel-Lindau disease tumor suppressor/Casein kinase I isoform alpha (Homo sapiens); assay: PROTAC activity at VHL/CK1 alpha in human HEK293 cells at 0.625 to 10 uM in presence of MU1742 by Western blot analysis; assay type: cell-based; conditions: dose 0.625-10 µM
[25] = target: T1, von Hippel-Lindau disease tumor suppressor/Casein kinase I isoform delta; assay: PROTAC activity at VHL/CK1 delta in human HEK293 cells assessed as degradation of CK1-delta at 3 to 20 uM incubated overnight followed by compound washout and measured after 1 hr by Nano-Glo HiBiT assay; assay type: cell-based; conditions: dose 3-20 µM
[26] = target: T1, von Hippel-Lindau disease tumor suppressor/Casein kinase I isoform delta; assay: PROTAC activity at VHL/Hibit-fused CK1 delta in human MV4-11 cells assessed as degradation of CK1-delta at 2.5 uM measured upto 12 hrs in presence of cycloheximide by Nano-Glo HiBiT assay relative to control; assay type: cell-based
[27] = target: T1, von Hippel-Lindau disease tumor suppressor/Casein kinase I isoform delta; assay: PROTAC activity at VHL/Hibit-fused CK1 delta in human MV4-11 cells assessed as half life at 2.5 uM measured upto 12 hrs in presence of cycloheximide by Nano-Glo HiBiT assay (reference value: 3 hrs); assay type: cell-based
[28] = target: T3, von Hippel-Lindau disease tumor suppressor/Casein kinase I isoform epsilon (Homo sapiens); assay: PROTAC activity at VHL/CK1 epsilon in HEK293 cells assessed as induction of degradation of CK1 epsilon at upto 20 uM pretreated with LGK974 followed by compound addition and measured after 6 hrs by Western blot analysis; assay type: cell-based

- DC50 [1]: 550 nM
- Emax [2]: 35.1%
- Activity [3]: Active
- Activity [6]: Active
- Emax [7]: > 50%
- Emax [8]: > 50%
- Activity [9]: Dose-dependent-effect
- Activity [12]: 100%
- Emax [13]: 20%
- Activity [14]: Dose-dependent-effect
- Emax [15]: 75%
- Activity [16]: inactive
- Emax [17]: 75%
- Emax [18]: 75%
- fold change (FC) [19]: 0.3
- fold change (FC) [20]: 0.93
- fold change (FC) [21]: 0.85
- fold change (FC) [22]: 0.82
- fold change (FC) [23]: 1.2
- Activity [24]: inactive
- Activity [25]: inactive
- Activity [26]: 90%
- T1/2 [27]: 40 min
- Activity [28]: Active
SMILES: Cc1ncsc1-c1ccc(CNC(=O)[C@H]2C[C@H](O)CN2C(=O)[C@H](NC(=O)CCCCCCC(=O)N2CCC(F)(Cn3cnc(-c4ccc(F)cn4)c3-c3ccnc4[nH]ccc34)CC2)C(C)(C)C)cc1
- Activity [4]: Not active; Compound Showed Weak Degradation
- Activity [5]: Not active; Compound Showed Weak Degradation
- Activity (MV4-11): Active; Compound Showed Milder Cytotoxic Effect
- Activity [10]: Not active; Compound Showed Weak Degradation
- Activity [11]: Not active; Compound Showed Weak Degradation
